Experimental findings from ChEMBL document CHEMBL5154826, “Discovery of the Clinical Candidate MAK683: An EED-Directed, Allosteric, and Selective PRC2 Inhibitor for the Treatment of Advanced Malignancies” (J Med Chem, 2022) are described below.

Values after ≈ are worked out from the molar mass of the structure shown.

Data set [1] is described as follows: Ratio of drug level in human blood to plasma. The data set is classed as ADME, cell-free. The note with it: whole blood.
The nature of data set [2]: Plasma clearance in rat. The data set is classed as ADME, cell-free.
Data set [3] concerns the target T1, Alpha-2A adrenergic receptor (Homo sapiens, UniProt P08913).
T1 sequence (P08913 whole entry): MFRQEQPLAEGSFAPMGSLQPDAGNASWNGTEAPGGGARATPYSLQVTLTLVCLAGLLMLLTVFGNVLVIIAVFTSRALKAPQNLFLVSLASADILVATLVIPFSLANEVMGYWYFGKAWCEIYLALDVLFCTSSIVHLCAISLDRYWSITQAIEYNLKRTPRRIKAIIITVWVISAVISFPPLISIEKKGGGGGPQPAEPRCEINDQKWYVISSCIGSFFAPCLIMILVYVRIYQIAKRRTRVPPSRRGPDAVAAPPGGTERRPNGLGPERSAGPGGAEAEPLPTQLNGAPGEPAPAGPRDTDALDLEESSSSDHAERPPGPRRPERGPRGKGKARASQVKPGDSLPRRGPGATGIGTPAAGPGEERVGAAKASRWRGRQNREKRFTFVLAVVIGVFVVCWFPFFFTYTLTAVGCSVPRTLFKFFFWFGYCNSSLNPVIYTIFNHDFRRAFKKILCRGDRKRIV
In words: Agonist activity at adrenergic receptor alpha2a (unknown origin). The class given is functional.

Data set [4] can be described thus: High throughput solubility of the compound in FaSSIF after 16 to 24 hrs by MS/MS analysis. The data set is classed as physicochemical. The note with it: time 16-24 hrs.
Data set [5] in a line: Volume of distribution at steady state in wild type Beagle dog at 2 mg/kg, po or 1 mg/kg, iv after 1 week by LC-MS/MS analysis. The class given is ADME, organism-based, Canis lupus familiaris. The settings on record: in vivo, 168 h, time 1 weeks.
Data set [6] in a line: Antitumor activity against human Karpas-422 cells xenografted Athymic BALB/c nude mouse assessed as inhibition of tumor growth at 300 mg/kg, po for 23 days. The class given is functional. More on the design: scale not given: the % may be the effect or the level left. The note with it: time 23 day. Background: Xenograft models place foreign cells or tissue in a host animal.

Data set [7] in a line: Dose normalized AUC in Sprague-Dawley rat at 2 mg/kg, po or 1 mg/kg, iv after 1 week by LC-MS/MS analysis. The settings on record: in vivo, 168 h, time 1 weeks. The class given is ADME, organism-based.
Data set [8] can be described thus: Metabolic stability in human microsomes assessed as intrinsic clearance. The class given is ADME, Microsome. The settings on record: read-out: CLH.

Broadly, the clearance is the volume of plasma or blood freed of the substance per unit of time. As usually defined, the IC50 is the concentration that gives 50% inhibition. One may read the solubility as the concentration that dissolves in the medium under given conditions. In the case of `Cc1ncccc1-c1cnc(NCc2c(F)ccc3c2CCO3)n2cnnc12`, the blood plasma ratio in data set [1] came to 0.78. For the same molecule, in data set [2], the clearance is 10 mL/min/kg. In addition, the IC50 in data set [3] was 9.6 µM. This molecule returned a solubility in data set [4] of 25 µM (≈ 9.41 µg/mL). In data set [5], this molecule yielded a Vdss of 1 L/kg. The Activity in data set [6] was 100%. In data set [7], this molecule returned an AUC/dose of 2939 nM·h. The microsomal CLint in data set [8] came out at 33 µL/min/mg.
